Measured values published in publication PMC9308409 (Communications Biology, 2022).
Where “and” joins values, the source holds several entries; their conditions need not be identical. Identical values can stand only once. Like-named read-outs stand apart in the source and are kept apart here.

Experiments:
TPCs = settings: read-out: IC50 inhibition of TPCs; cited from earlier work
lysosomal TPC2 = settings: cited from earlier work
[1] = target: T1, human TPC2^PM Y312A mutant (Homo sapiens, UniProt Q8NHX9, L11A/L12A/Y312A); assay: Inside-out patch-clamp, PI(3,5)P2-activated TPC2^PM Y312A; type: cell-based; settings: for current, trace of PI103 on Y312A of TPC2 channel: successive trace points
T1 construct: FLAG (C); V5 (C); expressed in transfected cells; host or cells: HEK293
Description: (§1) After 24 h of transfection, human TPC1^PM or TPC2^PM channel currents were acquired at room temperature using an EPC-10 amplifier and PatchMaster software (HEKA) or a MultiClamp 700B amplifier and pCLAMP software (Axon Instruments). […] Patch pipettes were polished with a resistance of 2–3 MΩ for recording. Similarly, for whole-cell recording to allow inhibitor application on the extracellular side, the K^+-based solution was used as the pipette solution, and the Na^+-based solution was used in the bath.

[2] = target: T2, human TPC2^PM H699A mutant (Homo sapiens, UniProt Q8NHX9, H699A/L11A/L12A); assay: Inside-out patch-clamp, PI(3,5)P2-activated TPC2^PM H699A; type: cell-based; settings: for current, trace of PI103 on H699A of TPC2 channel: voltage -1.20E+02, successive trace points
T2 construct: FLAG (C); V5 (C); expressed in transfected cells; host or cells: HEK293
Description: as §1

[3] = target: T3, human TPC2 L11A/L12A (TPC2^PM) (Homo sapiens, UniProt Q8NHX9, L11A/L12A); assay: Inside-out patch-clamp of PI(3,5)P2-induced TPC2^PM Na+ currents (WT pore); type: cell-based; settings: for current, trace of PI103 on WT TPC2 channel: voltage -1.20E+02, successive trace points
T3 construct: FLAG (C); V5 (C); expressed in transfected cells; host or cells: HEK293
Description: as §1
Dose curves were fitted by the Hill logistic equation. τon and τoff were acquired from singe exponential fitting.

[4] = target: T4, human TPC2^PM Y312A/H699A mutant (Homo sapiens, UniProt Q8NHX9, H699A/L11A/L12A/Y312A); assay: Inside-out patch-clamp, PI(3,5)P2-activated TPC2^PM Y312A/H699A; type: cell-based; settings: 0.3 μM PI(3,5)P2 alone, trace, voltage -1.20E+02
T4 construct: FLAG (C); V5 (C); expressed in transfected cells; host or cells: HEK293
Description: as §1

[5] = target: T3, human TPC2 L11A/L12A (TPC2^PM); assay: Whole cell patch-clamp of NAADP (microinjection)-induced TPC2^PM currents in HEK293 cells; type: cell-based; design: averaged NAADP-induced whole cell current trace: unit not given here
Description: Whole cell patch-clamp recording of the NAADP (microinjection)-induced TPC2^PM currents was performed as we reported. […] The cells were visualized under an infrared differential interference contrast optics microscope (Zeiss). Currents were recorded by voltage ramps from −120 to +120 mV over 400 ms for every 2 s with a holding potential of 0 mV. After a whole cell recording configuration was achieved, an injection pipette was inserted into the cell and the baseline of the whole cell current was recorded. Microinjection of NAADP was performed as above in imaging analysis of NAADP-evoked Ca^2+ release. The NAADP-induced currents were obtained by subtraction of the baseline from NAADP injection-induced currents.

human TPC2 = target: T5, human TPC2 (Homo sapiens, UniProt Q8NHX9); assay: Imaging of NAADP-evoked Ca2+ elevation (GCaMP6f) after microinjection in TPC2-expressing HEK293 cells; type: cell-based
T5 construct: FLAG (C); V5 (C); expressed in transfected cells; host or cells: HEK293
Description: Ca^2+ imaging analysis of NAADP-evoked Ca^2+ elevation was performed as we recently described. Briefly, cells were co-transfected with cDNA constructs of human TPC2 and the Ca^2+ reporter GCaMP6f, and the transfected cells were identified by GCaMP6f fluorescence. Fluorescence was monitored with an Axio Observer A1 microscope equipped with an AxioCam MRm digital camera and ZEN Blue 2 software containing a physiology module (Carl Zeiss) at a sampling frequency of 2 Hz. Cell injection was performed with a FemtoJet microinjector (Eppendorf). The pipette solution contained 110 mM KCl, 10 mM NaCl, and 20 mM Hepes (pH 7.2) supplemented with Dextran (10,000 MW)-Texas Red (0.3 mg/ml) and NAADP (100 nM) or vehicle. When needed, 10 µM YM201626 or apilimod at was added to the pipette solution. […] To minimize interference by contaminated Ca^2+, the pipette solution was always treated with Chelex 100 resin (#C709, Sigma-Aldrich) immediately before use. Microinjection (0.5 s at 150 hPa) was made ~30 s after pipette tip insertion into cells. […] Successful injection was verified by fluorescence of the co-injected Texas Red. Elevation in intracellular Ca^2+ concentration was reported by a change in fluorescence intensity measured as ΔF/F0, calculated from NAADP microinjection-induced maximal changes in fluorescence (ΔF at the peak) divided by the fluorescence immediately before microinjection (F0).

Ebola virus = settings: read-out: IC50 virus entry; cited from earlier work

T3 sequence (Q8NHX9 whole entry L11A/L12A): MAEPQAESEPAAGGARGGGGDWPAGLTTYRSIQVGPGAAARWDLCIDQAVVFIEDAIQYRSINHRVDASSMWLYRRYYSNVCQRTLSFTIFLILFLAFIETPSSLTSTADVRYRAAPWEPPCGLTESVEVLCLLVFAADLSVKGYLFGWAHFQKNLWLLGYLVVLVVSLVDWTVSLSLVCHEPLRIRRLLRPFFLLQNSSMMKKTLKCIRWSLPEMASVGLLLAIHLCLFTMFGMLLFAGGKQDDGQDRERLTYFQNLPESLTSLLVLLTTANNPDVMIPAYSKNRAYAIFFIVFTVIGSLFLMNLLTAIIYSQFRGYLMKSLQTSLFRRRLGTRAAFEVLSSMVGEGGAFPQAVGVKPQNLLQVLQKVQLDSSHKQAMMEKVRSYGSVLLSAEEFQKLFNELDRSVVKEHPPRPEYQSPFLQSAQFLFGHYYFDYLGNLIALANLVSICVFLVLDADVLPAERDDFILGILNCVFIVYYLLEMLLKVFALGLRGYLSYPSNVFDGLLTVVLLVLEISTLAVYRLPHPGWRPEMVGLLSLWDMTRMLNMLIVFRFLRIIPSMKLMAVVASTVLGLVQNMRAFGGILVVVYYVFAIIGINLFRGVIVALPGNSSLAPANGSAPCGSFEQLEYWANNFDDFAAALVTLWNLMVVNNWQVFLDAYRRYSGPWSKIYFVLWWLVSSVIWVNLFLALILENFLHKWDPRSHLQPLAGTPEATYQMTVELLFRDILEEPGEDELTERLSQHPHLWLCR
T1 sequence (Q8NHX9 whole entry L11A/L12A/Y312A): as the sequence (Q8NHX9 whole entry L11A/L12A) above, with Y312A counted along it
T2 sequence (Q8NHX9 whole entry L11A/L12A/H699A): as the sequence (Q8NHX9 whole entry L11A/L12A) above, with H699A counted along it
T5 sequence (Q8NHX9 whole entry): as the sequence (Q8NHX9 whole entry L11A/L12A) above, with A11L, A12L counted along it
T4 sequence (Q8NHX9 whole entry L11A/L12A/Y312A/H699A): as the sequence (Q8NHX9 whole entry L11A/L12A) above, with Y312A, H699A counted along it

SMILES: O=C1C[C@@H](c2ccc(O)cc2)Oc2cc(O)cc(O)c21 [Naringenin]
- IC50 (TPCs): ~200 µM

SMILES: COc1ccc([C@H]2N[C@H](C(=O)O)Cc3c2[nH]c2ccccc32)cc1CN1CCN(c2ccccc2F)CC1 [Ned-19]
- inhibition of lysosomal TPC2 activity (lysosomal TPC2; 200 µM): ~ 75%

SMILES: Oc1cccc(-c2nc(N3CCOCC3)c3oc4ncccc4c3n2)c1 [PI103]
- current, trace of PI103 on Y312A of TPC2 channel ([1]; 0.3 μM PI(3,5)P2 + 2.0 μM PI103, voltage -1.20E+02): -3.13E-09 A
- current, trace of PI103 on Y312A of TPC2 channel ([1]; 0.3 μM PI(3,5)P2 + 5.0 μM PI103, voltage -1.20E+02): -1.87E-09 A
- current, trace of PI103 on Y312A of TPC2 channel ([1]; 0.3 μM PI(3,5)P2 + 20.0 μM PI103, voltage -1.20E+02): -1.61E-09 A
- current, trace of PI103 on H699A of TPC2 channel ([2]; 0.3 μM PI(3,5)P2 + 0.4 μM PI103): -4.01E-09 A
- current, trace of PI103 on H699A of TPC2 channel ([2]; 0.3 μM PI(3,5)P2 + 20.0 μM PI103): -3.66E-09 A
- current, trace of PI103 on H699A of TPC2 channel ([2]; 0.3 μM PI(3,5)P2 + 50.0 μM PI103): -3.37E-09 A
- current, trace of PI103 on WT TPC2 channel ([3]; 0.3 μM PI(3,5)P2 + 0.2 μM PI103): -1.97E-09 A
- current, trace of PI103 on WT TPC2 channel ([3]; 0.3 μM PI(3,5)P2 + 0.5 μM PI103): -1.21E-09 A

SMILES: CCCCCCCC(=O)OC[C@H](COP(=O)(O)OC1[C@H](O)[C@H](OP(=O)(O)O)C(O)[C@H](OP(=O)(O)O)[C@H]1O)OC(=O)CCCCCCC (some centres unmarked) [PI(3,5)P2, phosphatidylinositol 3,5-bisphosphate]
- current(A) [4]: -4.54E-09 A
- current(A) ([1]; Y312A TPC2, 0.3 μM PI(3,5)P2 alone, trace, voltage -1.20E+02): -2.83E-09 A
- deactivation rate τoff on wash-off ([3]; 1.0 μM PI(3,5)P2, n = 7): 20.8 ± 0.9 s
- activation rate τon of human TPC2 channels ([3]; 1.0 μM PI(3,5)P2 from cytosolic side, n = 8): 9.0 ± 0.5 s
- kinetics (Tau) of TPC2PM currents, mean value ([3]; PI(3,5)P2 wash on): 9.035
- Tau of TPC2PM currents, PI(3,5)P2 wash on after Y201636, single cells ([3]; individual cells 1-5, Fig 3D): 48.718 and 63.746 and 69.896 and 56.91 and 53.316
- Tau of TPC2PM currents, PI(3,5)P2 wash off, single cells ([3]; individual cells 1-7, Fig 3D): 21.372 and 18.6234 and 21.6704 and 18.1982 and 20.854 and 19.4692 and 25.31
- Tau of TPC2PM currents, PI(3,5)P2 wash on, single cells ([3]; individual cells 1-8, Fig 3D): 8.4824 and 9.9858 and 7.6828 and 7.7804 and 8.8206 and 10.9364 and 11.3272 and 7.265
- Averaged kinetics (Tau) of TPC2PM currents, PI(3,5)P2 wash on after YM201636, mean value ([3]; mean, 5 cells, Fig 3D): 11.9903
- Averaged kinetics (Tau) of TPC2PM currents, PI(3,5)P2 wash off, mean value ([3]; mean, 7 cells, Fig 3D): 20.7853
- Averaged kinetics (Tau) of TPC2PM currents, PI(3,5)P2 wash on, mean value ([3]; mean, 8 cells, Fig 3D): 9.035

SMILES: Oc1cccc(-c2nc(N3CCOCC3)c3oc4ncccc4c3n2)c1 [PI-103]
- IC50 [1]: 13.9 µM
- channel's blockade in H699A mutant ([2]; 0.3 μM PI(3,5)P2, inside-out): largely abolished
- fold higher IC50 than that of YM201636 ([3]; WT TPC2^PM): 4 fold
- IC50 ([3]; read-out: IC50 for inhibition of PI(3,5)P2-induced human TPC2 channel Na+ currents): 0.64 µM

SMILES: COc1cc2c(cc1Oc1ccccc1)C(Cc1ccc(Oc3ccccc3)cc1)N(C)CC2 (centres unmarked) [SG-094]
- inhibition of (lysosomal) TPC2 currents (lysosomal TPC2; 10 µM): ~ 75%

SMILES: Cc1cccc(/C=N/Nc2cc(N3CCOCC3)nc(OCCc3ccccn3)n2)c1 [apilimod]
- inhibition of the NAADP-induced TPC2^PM currents ([5]; 1 µM in bath solution ~10 min, whole cell, −120 mV): little effect
- averaged NAADP-induced whole cell current trace ([5]; 1 uM, Voltage -119.76): -0.4148
- averaged NAADP-induced whole cell current trace ([5]; 1 uM, Voltage -119.82): -0.4172
- averaged NAADP-induced whole cell current trace ([5]; 1 uM, Voltage -119.88): -0.4198
- averaged NAADP-induced whole cell current trace ([5]; 1 uM, Voltage -119.94): -0.4267
- averaged NAADP-induced whole cell current trace ([5]; 1 uM, Voltage -120, Fig 1C source data): -0.4289
- I, current density of NAADP-induced whole cell TPC2^PM currents, individual cells ([5]; 1 uM, −120 mV, Fig 1D source data): 94.6904 pA/pF and 47.5492 pA/pF and 12.9726 pA/pF and 46.7536 pA/pF and 31.7662 pA/pF and 23.2025 pA/pF
- reduction of the NAADP-evoked Ca2+ elevation (human TPC2; 1 µM microinjected together with NAADP (100 nM), HEK293 cells): largely unaffected
- NAADP-evoked calcium elevation (change in Ca2+ indicator fluorescence), individual cells (human TPC2; Fig 1B source data, 1 µM microinjected with NAADP): 2.593 and 3.9665 and 6.13 and 1.0864 and 2.248 and 3.0742

SMILES: COc1ccc2cc1Oc1ccc(cc1)C[C@H]1c3cc(c(OC)cc3CCN1C)Oc1c(OC)c(OC)cc3c1[C@H](C2)N(C)CC3 [tetrandrine]
- inhibition of (lysosomal) TPC2 currents (lysosomal TPC2; 0.5 µM): 60%
- inhibition of (lysosomal) TPC2 currents (lysosomal TPC2; 10 µM): 54% and 50–60%
- IC50 (Ebola virus): 0.055 µM
